Data taken from patent publication US20200038513A1, “MODULATORS OF FAK PROTEOLYSIS AND ASSOCIATED METHODS OF USE” (ARVINAS OPERATIONS, INC., priority 2018, published 2020).

Tested on: MDA-MB-231 cells
Assay: RPPA (reverse phase protein array)
Assay type: cell-based, human
Description: RPPA analysis was performed by MD Anderson Cancer Center RPPA core facility.
Examination of the Molecular Signaling Events) and/or Downstream Pathways Responsible for the Migration and Invasion Effects Observed by Exemplary Compound Treatment. To pinpoint these observations to a molecular signaling event or specific downstream pathway, reverse phase protein array (RPPA) analysis was performed (Table 4).

Cc1ncsc1-c1ccc(CNC(=O)[C@@H]2C[C@@H](O)CN2C(=O)[C@@H](NC(=O)CCOCCOc2ccc(Nc3ncc(C(F)(F)F)c(NCc4cccc(N(C)S(C)(=O)=O)c4)n3)cc2)C(C)(C)C)cc1 [Compound 102, (2S,4R)-1-((S)-3,3-dimethyl-2-(3-(2-(4-((4-((3-(N-methylmethylsulfonamido)benzyl)amino)-5-(trifluoromethyl)pyrimidin-2-yl)amino)phenoxy)ethoxy)propanamido)butanoyl)-4-hydroxy-N-(4-(4-methylthiazol-5-yl)benzyl)pyrrolidine-2-carboxamide]
rel. Protein level, cdc25C (500nM): 99.5% | rel. Protein level, eEF2 (500nM): 98.9% | rel. Protein level, eEF2K (500nM): 110.8% | rel. Protein level, eIF4E (500nM): 102.9% | rel. Protein level, eIF4E_pS209 (500nM): 95.8% | rel. Protein level, eIF4G (500nM): 96.7% | rel. Protein level, mTOR (500nM): 98.9% | rel. Protein level, mTOR_pS2448 (500nM): 92.3% | rel. Protein level, p21 (500nM): 98.7% | rel. Protein level, p27-Kip-1 (500nM): 101.1% | rel. Protein level, p27_pT198 (500nM): 100.1% | rel. Protein level, p38-MAPK (500nM): 93.4% | rel. Protein level, p38_pT180_Y182 (500nM): 93.4% | rel. Protein level, p44-42-MAPK (500nM): 112.7% | rel. Protein level, p53 (500nM): 113.6% | rel. Protein level, p70-S6K1 (500nM): 109.6% | rel. Protein level, p70-S6K_pT389 (500nM): 92.3% | rel. Protein level, p90RSK_pT573 (500nM): 98.5% | Fak level by RPPA (in words) (10% FBS, 8 hours): Fak degradation | p-Fak level by RPPA (in words) (10% FBS, 8 hours): reduced levels of p-Fak | rel. Protein level [%], SCD (antibody SCD, 500nM, n = 2): 94.3% | rel. Protein level [%], SDHA (antibody SDHA, 500nM, n = 2): 102.0% | rel. Protein level [%], SF2 (antibody SF2, 500nM, n = 2): 105.3% | rel. Protein level [%], SHP-2_pY542 (antibody SHP-2_pY542, 500nM, n = 2): 96.4% | rel. Protein level [%], SLC1A5 (antibody SLC1A5, 500nM, n = 2): 100.8% | rel. Protein level [%], SOD1- (antibody SOD1-, 500nM, n = 2): 101.4% | rel. Protein level [%], SOD2 (antibody SOD2, 500nM, n = 2): 103.5% | rel. Protein level [%], STING (antibody STING, 500nM, n = 2): 136.3% | rel. Protein level [%], Shc_pY317 (antibody Shc_pY317, 500nM, n = 2): 100.3% | rel. Protein level [%], Slfn11 (antibody Slfn11, 500nM, n = 2): 96.5% | rel. Protein level [%], Smac (antibody Smac, 500nM, n = 2): 100.9% | rel. Protein level [%], Smad1 (antibody Smad1, 500nM, n = 2): 96.6% | rel. Protein level [%], Smad3 (antibody Smad3, 500nM, n = 2): 110.8% | rel. Protein level [%], Smad4 (antibody Smad4, 500nM, n = 2): 100.2% | rel. Protein level [%], Snail (antibody Snail, 500nM, n = 2): 107.4% | rel. Protein level [%], Sox2 (antibody Sox2, 500nM, n = 2): 105.3% | rel. Protein level [%], Src (antibody Src, 500nM, n = 2): 103.5% | rel. Protein level [%], Src_pY419 (antibody Src_pY419, 500nM, n = 2): 98.9% | rel. Protein level [%], Src_pY527 (antibody Src_pY527, 500nM, n = 2): 91.0% | rel. Protein level [%], Stat3 (antibody Stat3, 500nM, n = 2): 99.2% | rel. Protein level [%], Stat3_pY705 (antibody Stat3_pY705, 500nM, n = 2): 119.9% | rel. Protein level [%], Stat5a (antibody Stat5a, 500nM, n = 2): 111.4% | rel. Protein level [%], Stathmin-1 (antibody Stathmin-1, 500nM, n = 2): 101.8% | rel. Protein level [%], Syk (antibody Syk, 500nM, n = 2): 92.8% | rel. Protein level [%], TAZ (antibody TAZ, 500nM, n = 2): 89.0% | rel. Protein level [%], TFAM (antibody TFAM, 500nM, n = 2): 107.8% | rel. Protein level [%], TFRC (antibody TFRC, 500nM, n = 2): 99.8% | rel. Protein level [%], TIGAR (antibody TIGAR, 500nM, n = 2): 96.8% | rel. Protein level [%], TRIM25 (antibody TRIM25, 500nM, n = 2): 108.0% | rel. Protein level [%], TSC1 (antibody TSC1, 500nM, n = 2): 106.5% | rel. Protein level [%], TTF1 (antibody TTF1, 500nM, n = 2): 102.7% | rel. Protein level [%], TUFM (antibody TUFM, 500nM, n = 2): 96.9% | rel. Protein level [%], TWIST (antibody TWIST, 500nM, n = 2): 96.9% | rel. Protein level [%], Tau (antibody Tau, 500nM, n = 2): 101.7% | rel. Protein level [%], Transglutaminase (antibody Transglutaminase, 500nM, n = 2): 107.8% | rel. Protein level [%], Tuberin (antibody Tuberin, 500nM, n = 2): 106.3% | rel. Protein level [%], Tuberin_pT1462 (antibody Tuberin_pT1462, 500nM, n = 2): 93.5% | rel. Protein level [%], Tyro3 (antibody Tyro3, 500nM, n = 2): 98.8% | rel. Protein level [%], U-Histone-H2B (antibody U-Histone-H2B, 500nM, n = 2): 108.7% | rel. Protein level [%], UBAC1 (antibody UBAC1, 500nM, n = 2): 100.4% | rel. Protein level [%], UGT1A (antibody UGT1A, 500nM, n = 2): 94.3% | rel. Protein level [%], ULK1_pS757 (antibody ULK1_pS757, 500nM, n = 2): 100.9% | rel. Protein level [%], VASP (antibody VASP, 500nM, n = 2): 108.6% | rel. Protein level [%], VEGFR-2 (antibody VEGFR-2, 500nM, n = 2): 93.7% | rel. Protein level [%], VHL-EPPK1 (antibody VHL-EPPK1, 500nM, n = 2): 90.7% | rel. Protein level [%], WIPI1 (antibody WIPI1, 500nM, n = 2): 112.5% | rel. Protein level [%], WIPI2 (antibody WIPI2, 500nM, n = 2): 108.8% | rel. Protein level [%], Wee1 (antibody Wee1, 500nM, n = 2): 92.3% | rel. Protein level [%], Wee1_pS642 (antibody Wee1_pS642, 500nM, n = 2): 94.7% | rel. Protein level [%], XBP-1 (antibody XBP-1, 500nM, n = 2): 92.8% | rel. Protein level [%], XPA (antibody XPA, 500nM, n = 2): 96.4% | rel. Protein level [%], XPF (antibody XPF, 500nM, n = 2): 109.0% | rel. Protein level [%], XRCC1 (antibody XRCC1, 500nM, n = 2): 104.0% | rel. Protein level [%], YAP (antibody YAP, 500nM, n = 2): 95.4% | rel. Protein level [%], YAP_pS127 (antibody YAP_pS127, 500nM, n = 2): 106.2% | rel. Protein level [%], YB1_pS102 (antibody YB1_pS102, 500nM, n = 2): 92.3% | rel. Protein level [%], ZAP-70 (antibody ZAP-70, 500nM, n = 2): 92.5%
